Measurements published in the NIST ThermoML archive (doi:10.1016/j.fluid.2018.05.011).
Numbers after ± are expanded uncertainties.

Conditions: Liquid; Resistive pulse heating
Work on `OCCOCCOCCOCCOCCOCCO` [3,6,9,12,15-pentaoxaheptadecane-1,17-diol] yielded a Critical pressure of 1820 ± 70 kPa and a Critical temperature of 868 ± 13 K. Molecule `OCCOCCO` [diethylene glycol] has a Critical pressure of 4830 ± 190 kPa and a Critical temperature of 753 ± 11 K. With `OCCOCCOCCOCCOCCO` [3,6,9,12-tetraoxatetradecane-1,14-diol] the Critical pressure was 2130 ± 90 kPa and the Critical temperature was 842 ± 13 K. With `OCCOCCOCCO` [triethylene glycol] the Critical pressure was 3570 ± 140 kPa and the Critical temperature was 788 ± 12 K.
